Patent US9078899B2, “Pyrazolyl-based carboxamides II” (Grünenthal GmbH, priority 2013, dated 2015)

Legend:
[1] = biological target: T1, CRAC channel (Homo sapiens, UniProt Q96D31); assay: HEK Calcium Influx Assay (FLIPR); assay type: cell-based; conditions: 10 μM; endogenous SOC in HEK293 cells, thapsigargin store depletion, Ca2+ signal 9.5-10 min post-administration; read-out: % inhib.[@ 10 μM] FLIPR
T1 construct: host or cells: HEK293
Description: The effect of compounds of the invention on intracellular [Ca^2+] was tested in the HEK293 cell line (ECACC).
HEK293 cells were cultured in DMEM/F12/Glutamax (Gibco) containing 10% FCS (Gibco), and maintained at 37° C., 5% CO2. Cell were split twice a week [3*10^6 (Mon-Thu) and 1*10^6 (Thu-Mon) cells/50 ml medium in T-175 ZK culture flasks, respectively]. Twenty four hours pre-experiment, cells were seeded on 96 well plates (Poly-D-Lysine 96well Black/Clear Plate, BD Biocoat REF 356640) at a density of 40,000 cells/well in DMEM/F12 (Gibco) containing 10% FCS (Gibco), and maintained at 37° C., 5% CO2.
Prior to store-depletion, cell culture medium was removed and cells were loaded with the a Calcium-sensitive fluorescent dye comprised within the Calcium-4-assay kit (Molecular Devices) in nominally Ca^2+-free HBS buffer (140 mM NaCl, 4 mM KCl, 0.2 mM MgCl2, 11 mM D-glucose, and 10 mM HEPES, pH 7.4) according to manufacturer's instruction for 60 min at 37° C., 5% CO2.
Passive depletion of intracellular Ca^2+-stores was then triggered by employing the SERCA inhibitor thapsigargin (2 μM final) for 10 min in the dark (RT). To prevent immediate Ca^2+-entry via the activated Store-operated channels (SOCs), cells were maintained in Ca^2+-free HBS buffer comprising 100 μM EGTA during store-depletion.
Intracellular changes in [Ca^2+] were subsequently monitored with the FLIPR device (Molecular Devices). In brief, baseline imaging post-store depletion was allowed for 1 min before adjusting the extracellular buffer to 3 mM CaCl2. Increases in intracellular [Ca^2+] due to pre-activated SOC channels were monitored for 15 min until intracellular Ca^2+ levels had declined into a steady-state. Finally, compounds were administered and Ca^2+ signals were recorded for additional 10 min.
Inhibition of endogenous SOC in HEK293 cells was quantified employing the average Ca^2+ signal measured from 9.5-10 min post-administration. Zero percent inhibition (MAX) was defined as the Ca^2+ signal recorded from wells to which DMSO-only had been added instead of compound. Hundred percent inhibition (MIN) was defined as the signal obtained from wells in which cells haven't been treated with TG prior to Ca^2+ addition and to which DMSO-only had been added instead of compound. For routine IC50 determinations of compounds, 8 concentrations of a serial dilution (1:3.16) were tested, starting off from 10 μM. Reliable IC50's could consequently be determined only, if they were at least sub 2.5-3 μM.

[2] = tested on: Interleukin-2 (IL-2) production/release; assay: Jurkat IL-2 Production Assay; assay type: cell-based; conditions: Homo sapiens; Jurkat T cells clone E6-1, 15 μg/ml PHA for 22 hours, IL-2 in supernatant
Description: Jurkat IL-2 Production Assay
The effect of compounds of the invention on Interleukin-2 (IL-2) production/release was tested in the Jurkat T cell line (ECACC) clone E6-1.
Jurkat T cells were cultured in DMEM/F12/Glutamax (Gibco) containing 10% FCS (Gibco), and maintained at 37° C., 5% CO2. Cell were split twice a week [5*10^6 (Mon-Thu) and 1*10^7 (Thu-Mon) cells/50 ml medium in T-175 ZK culture flasks, respectively].
Prior to experiment, cells were seeded on 96 well plates (Cellstar 96 Well; Cat No. 655180, Greiner bio-one) at a density of 5*10^5 cells/well in DMEM/F12/Glutamax (Gibco) containing 10% FCS (Gibco), and incubated for 60 min at 37° C., 5% CO2. Subsequently, compounds were added and cells were allowed to incubate for 30 min at 37° C., 5% CO2. Cells were then stimulated with 15 μg/ml Phytohemagglutinin (PHA; Sigma) for 22 hours at 37° C., 5% CO2.
Before sampling of the supernatants, cells were spun down (200*g/5 min/RT). The amount of IL-2 released into the supernatant was quantified with the human IL-2 AlphaLisa kit (Perkin Elmer) according to manufacturer's instructions. Luminescence proximity measurements were carried out in the Synergy H4 reader (BioTek) employing the fluorescence setting of the reader (ex: 680/30 nm; em: 620/40 nm).
Inhibition of IL-Production/Release in/from Jurkat T Cells was Quantified as Follows:
Zero percent inhibition (MAX) was defined as the [IL-2] determined in supernatants derived from cells to which PHA & DMSO-only had been added instead of compound. Hundred percent inhibition (MIN) was defined as the [IL-2] determined in supernatants derived from cells that had been pre-treated with 1 μM CyclosporineA (Sigma) before the addition of 15 μg/ml PHA.
For routine IC50 determinations of compounds, 8 concentrations of a serial dilution (1:3.16) were tested, starting off from 10 μM.

T1 sequence (Q96D31 whole entry): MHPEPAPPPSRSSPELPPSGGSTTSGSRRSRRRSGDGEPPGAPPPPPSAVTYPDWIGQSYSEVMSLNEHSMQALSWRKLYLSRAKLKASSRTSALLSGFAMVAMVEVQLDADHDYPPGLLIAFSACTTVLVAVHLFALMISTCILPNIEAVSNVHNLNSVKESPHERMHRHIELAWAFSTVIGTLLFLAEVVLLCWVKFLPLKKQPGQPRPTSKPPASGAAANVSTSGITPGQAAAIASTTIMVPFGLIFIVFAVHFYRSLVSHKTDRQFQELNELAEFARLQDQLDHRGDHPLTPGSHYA

With `COc1cc(S(C)(=O)=O)ccc1-c1cc(C(=O)Nc2c(F)cccc2F)nn1C` [Example 66, N-(2,6-Difluoro-phenyl)-5-(2-methoxy-4-methylsulfonyl-phenyl)-1-methyl-1H-pyrazole-3-carboxylic acid amide] the inhibition at 10 µM [1] was < 50% and the IC50 [2] was 1 to 5 µM.

With `COc1ccc(OC(F)(F)F)c(-c2cc(C(=O)Nc3c(F)cccc3F)nn2C)c1` [Example 8, N-(2,6-Difluoro-phenyl)-5-[5-methoxy-2-(trifluoromethyloxy)-phenyl]-1-methyl-1H-pyrazole-3-carboxylic acid amide] the inhibition at 10 µM [1] was > 70% and the IC50 [2] was < 0.5 µM.

In the case of `Cc1ccc(Cl)cc1-c1cc(C(=O)Nc2c(F)cccc2F)nn1C` [Example 26, 5-(5-Chloro-2-methyl-phenyl)-N-(2,6-difluoro-phenyl)-1-methyl-1H-pyrazole-3-carboxylic acid amide], the inhibition at 10 µM [1] was > 70% and the IC50 [2] was 1 to 5 µM.

With `COc1ccc(F)cc1-c1cc(C(=O)Nc2c(F)cccc2F)nn1C` [Example 10, N-(2,6-Difluoro-phenyl)-5-(5-fluoro-2-methoxy-phenyl)-1-methyl-1H-pyrazole-3-carboxylic acid amide] the inhibition at 10 µM [1] was > 70% and the IC50 [2] was 0.5 to 1 µM.

For `COc1ccccc1-c1cc(C(=O)Nc2c(F)cccc2F)nn1C` [Example 1, N-(2,6-Difluoro-phenyl)-5-(2-methoxyphenyl)-1-methyl-1H-pyrazole-3-carboxylic acid amide], the inhibition at 10 µM [1] was > 70% and the IC50 [2] was 1 to 5 µM.

`COc1ccc(OC)c(-c2c(Cl)c(C(=O)Nc3c(F)cccc3F)nn2C)c1` [Example 39, 4-Chloro-N-(2,6-difluoro-phenyl)-5-(2,5-dimethoxyphenyl)-1-methyl-1H-pyrazole-3-carboxylic acid amide] was tested, and the inhibition at 10 µM [1] was > 70% and the IC50 [2] was < 0.5 µM.

With `Cn1nc(C(=O)Nc2c(F)cncc2F)cc1-c1c(F)cccc1C(F)(F)F` [Example 49, N-(3,5-Difluoro-pyridin-4-yl)-5-[2-fluoro-6-(trifluoromethyl)-phenyl]-1-methyl-1H-pyrazole-3-carboxylic acid amide] the inhibition at 10 µM [1] was > 70% and the IC50 [2] was 1 to 5 µM.

In the case of `COc1ccc(OC)c(-c2cc(C(=O)Nc3cnccc3C)nn2C)c1` [Example 16, 5-(2,5-Dimethoxyphenyl)-1-methyl-N-(4-methyl-pyridin-3-yl)-1H-pyrazole-3-carboxylic acid amide], the inhibition at 10 µM [1] was > 70% and the IC50 [2] was 1 to 5 µM.

With `Cn1nc(C(=O)Nc2ccncc2F)cc1-c1cc(OC(F)(F)F)ccc1C1CC1` [Example 47, 5-[2-Cyclopropyl-5-(trifluoromethyloxy)-phenyl]-N-(3-fluoro-pyridin-4-yl)-1-methyl-1H-pyrazole-3-carboxylic acid amide] the inhibition at 10 µM [1] was > 70% and the IC50 [2] was 1 to 5 µM.

`Cn1nc(C(=O)Nc2c(F)cccc2F)cc1-c1ccc(OC(F)(F)F)cc1Cl` [Example 12, 5-[2-Chloro-4-(trifluoromethyloxy)-phenyl]-N-(2,6-difluoro-phenyl)-1-methyl-1H-pyrazole-3-carboxylic acid amide] was tested, and the inhibition at 10 µM [1] was > 70% and the IC50 [2] was 0.5 to 1 µM.

With `COc1ccc(OC)c(-c2cc(C(=O)Nc3ccccc3C)nn2C)c1` [Example 27, 5-(2,5-Dimethoxyphenyl)-1-methyl-N-(o-tolyl)-1H-pyrazole-3-carboxylic acid amide] the inhibition at 10 µM [1] was > 70% and the IC50 [2] was 1 to 5 µM.

In the case of `COc1ccc(OC)c(-c2cc(C(=O)Nc3c(F)cccc3F)nn2C)c1` [Example 21, N-(2,6-Difluoro-phenyl)-5-(2,5-dimethoxyphenyl)-1-methyl-1H-pyrazole-3-carboxylic acid amide], the inhibition at 10 µM [1] was > 70% and the IC50 [2] was < 0.5 µM.

For `COc1ccc(OC)c(-c2c(Cl)c(C(=O)Nc3ccncc3F)nn2C)c1` [Example 40, 4-Chloro-5-(2,5-dimethoxyphenyl)-N-(3-fluoro-pyridin-4-yl)-1-methyl-1H-pyrazole-3-carboxylic acid amide], the inhibition at 10 µM [1] was > 70% and the IC50 [2] was 1 to 5 µM.

`COc1cc(F)c(NC(=O)c2cc(-c3cc(OC)ccc3OC)n(C)n2)c(F)c1` [Example 31, N-(2,6-Difluoro-4-methoxy-phenyl)-5-(2,5-dimethoxyphenyl)-1-methyl-1H-pyrazole-3-carboxylic acid amide] was tested, and the inhibition at 10 µM [1] was > 70% and the IC50 [2] was < 0.5 µM.
